For 19 compounds, ED50 and Ki results are on record in ChEMBL document CHEMBL1127260, “EMD 61 753 as a favourable representative of structurally novel arylacetamido-type K opiate receptor agonists” (Bioorg Med Chem Lett, 1994).

Molecules are shown by their SMILES.

The first test has as its system Mus musculus. As to the kind of experiment: Inhibitory dose (sc) in the formalin test in mice at late phase. Format: functional. Particulars: read-out: ID50 (the source's name).
Turning to `CN(C(=O)C(c1ccccc1)c1ccccc1)[C@H](CN1CC[C@H](O)C1)c1ccccc1.Cl` [ASIMADOLINE HYDROCHLORIDE], the ED50 came out at 0.24 mg/kg.
Still for that read-out and setting: for `CC(C)[C@@H](CN1CCCC1)N(C)C(=O)Cc1ccc(Cl)c(Cl)c1` the value was 0.02 mg/kg; for `CN1CC[C@]23c4c5ccc(O)c4O[C@H]2[C@@H](O)C=C[C@H]3[C@H]1C5` [MORPHINE], 3.4 mg/kg.

For the next test, the target named is Delta-type opioid receptor (Rattus norvegicus, UniProt P33533). As to the kind of experiment: Affinity to delta opioid receptor determined in the presence of [3H]- [D-Pen2,5]enkephalin using membranes prepared from rat cerebrum.
Chain of Delta-type opioid receptor (P33533 whole entry): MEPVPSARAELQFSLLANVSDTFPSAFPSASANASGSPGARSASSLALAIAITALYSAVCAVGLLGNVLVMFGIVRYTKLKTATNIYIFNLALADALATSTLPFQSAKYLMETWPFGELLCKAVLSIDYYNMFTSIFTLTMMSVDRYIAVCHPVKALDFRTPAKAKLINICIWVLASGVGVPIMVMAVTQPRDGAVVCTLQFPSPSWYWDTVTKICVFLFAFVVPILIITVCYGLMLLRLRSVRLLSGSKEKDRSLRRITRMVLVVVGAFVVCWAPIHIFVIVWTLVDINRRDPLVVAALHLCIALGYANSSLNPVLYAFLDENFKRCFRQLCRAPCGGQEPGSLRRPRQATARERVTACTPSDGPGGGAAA
Conditions: not given
In the case of `CN(C(=O)C(c1ccccc1)c1ccccc1)[C@H](CN1CC[C@H](O)C1)c1ccccc1.Cl` [ASIMADOLINE HYDROCHLORIDE], the Ki was > 100 nM.
As to `CN(C(=O)C1c2ccccc2CCc2ccccc21)[C@H](CN1CC[C@H](O)C1)c1ccccc1.Cl`, the Ki was > 100 nM.
Still for that read-out and setting: for `CN(C(=O)C(c1ccc(F)cc1)c1ccc(F)cc1)[C@H](CN1CC[C@H](O)C1)c1ccccc1` the value was > 100 nM.
The same measure, in the same setting: then `CN(C(=O)C(c1ccc(Cl)cc1)c1ccc(Cl)cc1)[C@H](CN1CC[C@H](O)C1)c1ccccc1`, with > 100 nM; and `CN(C(=O)C(c1ccccc1)C1CCCCC1)[C@H](CN1CC[C@H](O)C1)c1ccccc1` (stereo in doubt; form 2), with > 100 nM.
Same read-out and setting: for `CN(C(=O)C1c2ccccc2Sc2ccccc21)[C@H](CN1CC[C@H](O)C1)c1ccccc1` the value was > 100 nM; for `CN(C(=O)C1c2ccccc2Cc2ccccc21)[C@H](CN1CC[C@H](O)C1)c1ccccc1`, > 100 nM; for `Cc1ccc(C(C(=O)N(C)[C@H](CN2CC[C@H](O)C2)c2ccccc2)c2ccc(C)cc2)cc1.Cl`, > 100 nM.
`CN(C(=O)C(c1ccccc1)C1CCCCC1)[C@H](CN1CC[C@H](O)C1)c1ccccc1` (stereo in doubt; form 1): the Ki is > 100 nM.
Consider `CN(C(=O)C1c2ccccc2-c2ccccc21)[C@H](CN1CC[C@H](O)C1)c1ccccc1`, for which the Ki was 60 nM.
For the compound `CN(C(=O)C(c1cccs1)c1cccs1)[C@H](CN1CC[C@H](O)C1)c1ccccc1`, the Ki was > 100 nM.
As to `CN(C(=O)C1c2ccccc2Oc2ccccc21)[C@H](CN1CC[C@H](O)C1)c1ccccc1`, the Ki was > 100 nM.

The target of another test is Mu-type opioid receptor (Rattus norvegicus, UniProt P33535). The test is described as follows: Affinity to mu opioid receptor determined in the presence of [3H]- PL 017 using membranes prepared from rat cerebrum.
Chain of Mu-type opioid receptor (P33535 whole entry): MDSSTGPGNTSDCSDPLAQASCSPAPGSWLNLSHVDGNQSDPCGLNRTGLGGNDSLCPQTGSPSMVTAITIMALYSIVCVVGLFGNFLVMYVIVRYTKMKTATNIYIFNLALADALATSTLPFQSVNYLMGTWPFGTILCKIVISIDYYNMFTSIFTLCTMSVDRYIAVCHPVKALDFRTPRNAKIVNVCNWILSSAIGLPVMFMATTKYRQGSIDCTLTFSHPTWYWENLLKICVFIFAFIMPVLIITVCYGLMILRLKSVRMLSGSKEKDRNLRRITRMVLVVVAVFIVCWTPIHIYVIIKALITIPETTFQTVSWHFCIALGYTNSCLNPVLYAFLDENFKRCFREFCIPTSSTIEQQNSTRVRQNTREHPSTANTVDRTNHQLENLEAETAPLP
Conditions: not given
For `CN(C(=O)C(c1ccccc1)c1ccccc1)[C@H](CN1CC[C@H](O)C1)c1ccccc1.Cl` [ASIMADOLINE HYDROCHLORIDE], the Ki was > 100 nM.
`CN(C(=O)C1c2ccccc2CCc2ccccc21)[C@H](CN1CC[C@H](O)C1)c1ccccc1.Cl`: the Ki was > 100 nM.
The same measure, in the same setting: for `CN(C(=O)C(c1ccc(F)cc1)c1ccc(F)cc1)[C@H](CN1CC[C@H](O)C1)c1ccccc1` the value was > 100 nM; for `CN(C(=O)C(c1ccc(Cl)cc1)c1ccc(Cl)cc1)[C@H](CN1CC[C@H](O)C1)c1ccccc1`, > 100 nM; for `CN(C(=O)C(c1ccccc1)C1CCCCC1)[C@H](CN1CC[C@H](O)C1)c1ccccc1` (stereo in doubt; form 2), > 100 nM.
`CN(C(=O)C1c2ccccc2Sc2ccccc21)[C@H](CN1CC[C@H](O)C1)c1ccccc1`: the Ki is > 100 nM.
Take `CN(C(=O)C1c2ccccc2Cc2ccccc21)[C@H](CN1CC[C@H](O)C1)c1ccccc1`: the Ki was > 100 nM.
`Cc1ccc(C(C(=O)N(C)[C@H](CN2CC[C@H](O)C2)c2ccccc2)c2ccc(C)cc2)cc1.Cl`: the Ki was > 100 nM.
On the same count and under the same terms, then `CN(C(=O)C(c1ccccc1)C1CCCCC1)[C@H](CN1CC[C@H](O)C1)c1ccccc1` (stereo in doubt; form 1), with > 100 nM.
Still for that read-out and setting: for `CN(C(=O)C1c2ccccc2-c2ccccc21)[C@H](CN1CC[C@H](O)C1)c1ccccc1` the value was 40 nM; for `CN(C(=O)C(c1cccs1)c1cccs1)[C@H](CN1CC[C@H](O)C1)c1ccccc1`, > 100 nM.
On to `CN(C(=O)C1c2ccccc2Oc2ccccc21)[C@H](CN1CC[C@H](O)C1)c1ccccc1`, for which the Ki was > 100 nM.

The subject of the next test is Mus musculus. As to the kind of experiment: Inhibitory dose (sc) in the formalin test in mice at early phase. The format is functional. Particulars: read-out: ID50 (the source's name).
On to `CN(C(=O)C(c1ccccc1)c1ccccc1)[C@H](CN1CC[C@H](O)C1)c1ccccc1.Cl` [ASIMADOLINE HYDROCHLORIDE], for which the ED50 was > 2 mg/kg.
`CC(C)[C@@H](CN1CCCC1)N(C)C(=O)Cc1ccc(Cl)c(Cl)c1`: the ED50 worked out at 0.04 mg/kg.
On the same count and under the same terms, for `CN1CC[C@]23c4c5ccc(O)c4O[C@H]2[C@@H](O)C=C[C@H]3[C@H]1C5` [MORPHINE] the value was 1.7 mg/kg.

Another test deals with Kappa-type opioid receptor (Cavia porcellus, UniProt P41144). As to the kind of experiment: Affinity at K opioid receptor on membranes prepared from guinea pig cerebellum by [3H]- 69593 displacement.
Chain of Kappa-type opioid receptor (P41144 whole entry): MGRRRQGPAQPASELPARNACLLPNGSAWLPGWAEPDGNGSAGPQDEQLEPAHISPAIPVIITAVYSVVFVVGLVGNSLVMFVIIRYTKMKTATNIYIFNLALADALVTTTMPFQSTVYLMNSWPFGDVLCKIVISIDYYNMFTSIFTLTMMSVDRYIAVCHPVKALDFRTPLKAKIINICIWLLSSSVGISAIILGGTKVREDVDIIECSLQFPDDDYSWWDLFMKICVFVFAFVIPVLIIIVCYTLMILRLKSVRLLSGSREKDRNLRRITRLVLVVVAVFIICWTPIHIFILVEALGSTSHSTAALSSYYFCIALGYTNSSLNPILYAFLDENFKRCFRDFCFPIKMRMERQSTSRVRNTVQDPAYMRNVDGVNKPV
Conditions: not given
Format: tissue-based.
`CN(C(=O)C(c1ccccc1)c1ccccc1)[C@H](CN1CC[C@H](O)C1)c1cccc([N+](=O)[O-])c1.Cl` returned a Ki of 20 nM l-1.
Still for that read-out and setting: then `CN(C(=O)C1c2ccccc2CCc2ccccc21)[C@H](CN1CC[C@H](O)C1)c1ccccc1.Cl`, with 20 nM l-1; and `Cc1ccc(C(C(=O)N(C)[C@H](CN2CC[C@H](O)C2)c2ccccc2)c2ccc(C)cc2)cc1.Cl`, with 20 nM l-1.

The test is the same for the next values; noted with them: read-out: Ki.
With `CC(=O)Nc1cccc([C@@H](CN2CC[C@H](O)C2)N(C)C(=O)C(c2ccccc2)c2ccccc2)c1`, the Ki was found to be 6 nM.
On the same count and under the same terms, for `CN(C(=O)C(c1ccc(F)cc1)c1ccc(F)cc1)[C@H](CN1CC[C@H](O)C1)c1ccccc1` the value was 7 nM; for `CN(C(=O)C(c1ccccc1)c1ccccc1)[C@H](CN1CC[C@H](O)C1)c1ccc(O)cc1`, 6 nM.
The same measure, in the same setting: for `CN(C(=O)C(c1ccccc1)c1ccccc1)[C@H](CN1CC[C@H](O)C1)c1cccc(N)c1` the value was 6 nM; for `CN(C(=O)C(c1ccc(Cl)cc1)c1ccc(Cl)cc1)[C@H](CN1CC[C@H](O)C1)c1ccccc1`, 5 nM; for `CN(C(=O)C(c1ccccc1)C1CCCCC1)[C@H](CN1CC[C@H](O)C1)c1ccccc1` (stereo in doubt; form 2), 10 nM.
As to `CN(C(=O)C1c2ccccc2Sc2ccccc21)[C@H](CN1CC[C@H](O)C1)c1ccccc1`, the Ki stood at 10 nM.
With `CN(C(=O)C1c2ccccc2Cc2ccccc21)[C@H](CN1CC[C@H](O)C1)c1ccccc1`, the Ki amounted to 4 nM.
As to `COc1ccc([C@@H](CN2CC[C@H](O)C2)N(C)C(=O)C(c2ccccc2)c2ccccc2)cc1`, the Ki amounted to 7 nM.
On the same count and under the same terms, for `CN(C(=O)C(c1ccccc1)C1CCCCC1)[C@H](CN1CC[C@H](O)C1)c1ccccc1` (stereo in doubt; form 1) the value was 10 nM; for `CN(C(=O)C1c2ccccc2-c2ccccc21)[C@H](CN1CC[C@H](O)C1)c1ccccc1`, 6 nM.
The same measure, in the same setting: for `CN(C(=O)C(c1cccs1)c1cccs1)[C@H](CN1CC[C@H](O)C1)c1ccccc1` the value was 4 nM.
The same measure, in the same setting: then `CN(C(=O)C1c2ccccc2Oc2ccccc21)[C@H](CN1CC[C@H](O)C1)c1ccccc1`, with 4 nM.
